Legend:
[1] = molecular target: T1, Plasma-kallikrein (Homo sapiens, UniProt P03952); test: Determination of Ki values, chromogenic substrate, Dixon evaluation: plasma-kallikrein; type: biochemical; conditions: 25° C., tris buffer pH 8.0, substrate Bz-Pro-Phe-Arg-pNA; read-out: Ki PK (plasma-kallikrein)
T1 construct: purchased Haemochrom Diagnostica GmbH (Essen, D)
Excerpt: In a particularly preferred embodiment the compound according to Formula (I) inhibits not only the blood coagulation factor XA but also thrombin and/or plasma kallikrein. […] Here too the Ki value stands for the dissociation constant of the respective enzyme-inhibitor complex. The determination of the Ki values of the inhibitors vis-a-vis thrombin and plasma kallikrein is preferably carried out in a similar manner to the determination, described above, of the Ki values of the inhibitors vis-a-vis the coagulation factor Xa, but in this case CH3SO2-D-HHT-gly-arg-pNA (with HHT=hexahydrothyrosin, and pNA=para-nitroaniline; sold under the commercial name Pefachrome tPA) are used as substrates in the case of thrombin and bz-pro-phe-arg-pNA (with bz=[…], and pNA=para-nitroaniline; sold under the commercial name Chromozym PK) in the case of plasma-kallikrein.
The inhibitors used here are the commercially available exemplary inhibitors Pefabloc tPA/Xa (2,7-bis(4-amidinobenzylidene)-cyclopeptanone-(1), Pentapharm Ltd. Basel, Switzerland), CJ-FXa (benzylsulphonyl-D-arginyl-glycyl-4-amidinobenzylamide, Haemochrom GmbH, Essen, Germany) and CJ-PK (benzylsulphonyl-D-seryl-carbobenzoxylsyl-4-amidinobenzylamide, Haemochrom GmbH, Essen, Germany). Research samples were available of DX-9065a ((+)-(2S)-2-[4-[[3S)-1-acetimidoyl-3-pyrrodinyl]oxy]phenyl]-3-[7-amidino-2-naphthyl]propanic acid, Daiichi Pharmaceutical Company Ltd., Tokyo, Japan), and Otamixaban (2-(R)-(3-carbamimidoylbenyzyl)-3-(R)-[4-(1-oxypyridin-4-yl)benzoylamino]-butyric acid-methylester, Sanofi-Aventis GmbH, Frankfurt, Germany), both of which are undergoing clinical tests. In order to examine the inhibitory action of these exemplarily used inhibitors on the blood coagulation factors plasma-kallikrein, VIIa, Xa, XIa and XIIa, the Ki values of the respective enzyme-inhibitor complexes were determined.
The enzymes were produced by Haemochrom Diagnostica GmbH (Essen, D) and were dissolved in 0.154 mol/l NaCl. The substrates (Pentapharm AG, Basel, CH) were dissolved in H2O and the inhibitor was dissolved in the above-mentioned tris buffer. The following substrates were used for the individual enzymes:
(§1) 200 μl of inhibitor solution were mixed with 25 μl of substrate for the determination and the reaction was started by the addition of 50 μl of enzyme. After a reaction time of 3-5 mins. 25 μl of acetic acid (50%) were added and the extinction was measured at 405 nm with a microplate reader (iEMS Reader MF 12401, Labsystems, Helsinki, Finland). The evaluation was carried out graphically according to Dixon (Biochem. J., 55, 170, 1953).
The enzymes were produced by Haemochrom Diagnostica GmbH (Essen, D), and only thrombin was manufactured in our own laboratory according to Walsmann (Pharmazie 23, 401-402, 1968). All the enzymes were dissolved in 0.154 mol/l NaCl. The substrates (Pentapharm AG, Basel, CH) were dissolved in H2O and the inhibitor was dissolved in the above-mentioned tris buffer. The following substrates were used for the individual enzymes:
as §1, with “1401,” for “12401,”

[2] = system: human vein blood; test: Storage of human vein blood after anticoagulation with inhibitor (F1+2 immunoassay); conditions: 25° C.
Procedure: In the sense of the invention anticoagulation means that the re-formation of thrombin is inhibited in the sampled blood. According to the invention thrombin re-formation is inhibited when no more than 1 nM of thrombin is re-formed in the sampled blood. As described above, the activation of prothrombin to thrombin represents an essential step in the blood coagulation cascade. In this case the prothrombin fragment 1+2 (F1+2) is released in equivalent quantities. It is therefore possible to quantify the thrombin actually formed by determining the fragment produced, thus enabling the prothrombin fragment F1+2 to be used as an indirect marker of an activation of prothrombin to thrombin. The concentration of the prothrombin fragment F1+2 formed may be determined immunologically, for example, with commercial enzyme immunoassays (for example Enzygnost F1+2 micro, Dade Behring GmbH, Marburg).
According to the invention anticoagulation therefore means that no more than 1 nM of prothrombin fragment F1+2 is newly formed in the blood after its sampling. […] Without suitable treatment of the blood to prevent coagulation there is an increase in the concentration of the prothrombin fragment F1+2 in this example to well over 1.3 nM, within a few minutes, due to the plasmatic coagulation, i.e. the blood coagulates.
In this experiment it was determined how long human vein blood can be stored without the formation of thrombin or activation of thrombocytes.
For this purpose blood (9 parts) sampled from a patient was mixed with inhibitor solution (0.05 mM, 0.5 mM or 5 mM in physiological NaCl solution; 1 part). Some of the blood was stored at 25° C., the remainder in the refrigerator at 4° C. The quantity of thrombin formed was determined immunologically during storage based on the formation of the prothrombin fragment F1+2 (Enzygnost F1+2 micro, Dade Behring GmbH, Marburg). […] In this case it is irrelevant whether the blood samples were kept at room temperature (approx. 25° C.) or at 4° C.
For this purpose blood (9 parts) sampled from a patient was mixed with inhibitor solution (0.05 mM, 0.5 mM or 5 mM in physiological NaCl solution; 1 part) and stored at room temperature (about 22±2° C.). The quantity of thrombin formed was determined immunologically during storage based on the formation of the prothrombin fragment F1+2 (Enzygnost F1+2 micro, Dade Behring GmbH, Marburg). It was shown that BAPA′ is capable of keeping anticoagulated blood uncoagulated at a concentration in the blood of 500 μM or 50 μM for more than 48 hours (Table 4). At a concentration of 5 μM BAPA′ prevents coagulation for more than 8 hours.

[3] = molecular target: T2, Factor Xa (Homo sapiens, UniProt P00742); test: Determination of Ki values, chromogenic substrate, Dixon evaluation: Factor Xa; type: biochemical; conditions: 25° C., tris buffer pH 8.0, substrate CH3OCO-D-Cha-Gly-Arg-pNA
T2 construct: purchased Haemochrom Diagnostica GmbH (Essen, D)
T2 sequence (P00742 235-488 limits assumed): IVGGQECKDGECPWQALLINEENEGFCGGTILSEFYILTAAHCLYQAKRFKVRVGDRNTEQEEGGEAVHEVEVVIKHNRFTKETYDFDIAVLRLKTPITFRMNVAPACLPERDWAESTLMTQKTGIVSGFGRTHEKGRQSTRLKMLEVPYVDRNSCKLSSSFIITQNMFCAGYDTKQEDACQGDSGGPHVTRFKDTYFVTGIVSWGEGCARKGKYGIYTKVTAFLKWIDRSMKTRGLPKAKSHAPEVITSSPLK
T2 sequence (P00742 41-179 partner limits assumed): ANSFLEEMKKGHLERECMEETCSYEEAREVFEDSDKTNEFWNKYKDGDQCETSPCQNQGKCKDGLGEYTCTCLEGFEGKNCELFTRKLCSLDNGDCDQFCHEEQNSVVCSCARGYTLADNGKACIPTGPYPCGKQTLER

T1 sequence (P03952 391-638 limits assumed): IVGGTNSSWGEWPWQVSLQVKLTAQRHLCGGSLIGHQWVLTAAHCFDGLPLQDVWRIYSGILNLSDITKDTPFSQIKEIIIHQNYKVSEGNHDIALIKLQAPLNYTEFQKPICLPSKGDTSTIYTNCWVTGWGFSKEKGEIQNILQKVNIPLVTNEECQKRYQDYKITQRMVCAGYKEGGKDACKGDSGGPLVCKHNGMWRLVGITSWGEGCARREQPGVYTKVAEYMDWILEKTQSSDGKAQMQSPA
T1 sequence (P03952 20-390 partner limits assumed): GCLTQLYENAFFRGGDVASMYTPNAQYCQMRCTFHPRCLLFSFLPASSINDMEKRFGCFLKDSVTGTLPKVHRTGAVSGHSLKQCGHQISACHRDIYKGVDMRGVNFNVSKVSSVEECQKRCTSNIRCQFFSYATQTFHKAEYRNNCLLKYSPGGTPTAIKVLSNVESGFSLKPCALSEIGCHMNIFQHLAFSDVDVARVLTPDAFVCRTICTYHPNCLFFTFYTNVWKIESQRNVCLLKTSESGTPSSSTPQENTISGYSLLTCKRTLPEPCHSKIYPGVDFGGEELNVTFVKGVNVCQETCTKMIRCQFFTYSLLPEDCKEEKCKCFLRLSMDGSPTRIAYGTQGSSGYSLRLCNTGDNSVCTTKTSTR

Row | Compound | Ki [1] | Anticoagulation time ([2]; concentration in the blood 5 μM) | Ki [3] | Anticoagulation time ([2]; concentration in the blood 500 μM)
1 | COC(=O)[C@H](Cc1cccc(C(=N)N)c1)[C@@H](C)NC(=O)c1ccc(-c2cc[n+]([O-])cc2)cc1 (mixture of isomers) [Otamixaban, 2-(R)-(3-carbamimidoylbenyzyl)-3-(R)-[4-(1-oxypyridin-4-yl)benzoylamino]-butyric acid-methylester] | 26 nM | 12 to 24 h | – | –
2 | N=C(N)c1ccc(C=C2CCCCC(=Cc3ccc(C(=N)N)cc3)C2=O)cc1 [Pefabloc tPA/Xa, 2,7-bis(4-amidinobenzylidene)-cycloheptanone-(1)] | 720 nM | – | 5.1 nM | 7 to 10 h
